# US20180093951A1, “PESTICIDALLY ACTIVE CAR[…] THIOCAR[…] DERIVATIVES” (Syngenta Participations AG, priority 2015, published 2018)
# Experiments:
# [1] = system: Plutella Xylostella; experiment: Plutella xylostella (diamond back moth) artificial diet test; assay type: in vivo; conditions: 120 h, application rate of 200 ppm, L2 larvae, 5 days after infestation, read-out: effect in at least one of the two categories (mortality or growth inhibition)
# Experimental: Example B2: Plutella Xylostella (Diamond Back Moth)
# (§1) 24-well microtiter plates with artificial diet were treated with aqueous test solutions prepared from 10,000 ppm DMSO stock solutions by pipetting. After drying, the plates were infested with L2 larvae (10 to 15 per well). The samples were assessed for mortality and growth inhibition in comparison to untreated samples 5 days after infestation.
# The following compounds gave an effect of at least 80% in at least one of the two categories (mortality or growth inhibition) at an application rate of 200 ppm: P1, P2, P3, P5, P10, P11, P14 and P20.
# [2] = system: Diabrotica Balteata; experiment: Diabrotica balteata (corn root worm) maize sprout test; assay type: in vivo; conditions: 96 h, application rate of 200 ppm, L2 larvae, 4 days after infestation, read-out: effect in at least one of the two categories (mortality or growth inhibition)
# Experimental: Example B3: Diabrotica Balteata (Corn Root Worm)
# as §1, with “Maize sprouts, placed on an agar layer in 24-well” for “24-well”, “plates” for “plates with artificial diet”, “spraying.” for “pipetting.”, “(6” for “(10”, “10” for “15”, “4” for “5”
# The following compounds gave an effect of at least 80% in at least one of the two categories (mortality or growth inhibition) at an application rate of 200 ppm: P1, P2, P3, P4, P5, P10 and P14.
# [3] = system: Spodoptera littoralis; experiment: Spodoptera littoralis (Egyptian cotton leaf worm) cotton leaf disc spray test; assay type: in vivo; conditions: foliar, 72 h, application rate of 200 ppm, L1 larvae, 3 days after infestation, read-out: control (at least one of mortality, anti-feedant effect, growth inhibition)
# Experimental: Example B1: Spodoptera littoralis (Egyptian Cotton Leaf Worm)
# Cotton leaf discs were placed on agar in 24-well microtiter plates and sprayed with aqueous test solutions prepared from 10,000 ppm DMSO stock solutions. After drying, the leaf discs were infested with five L1 larvae. The samples were assessed for mortality, anti-feedant effect, and growth inhibition in comparison to untreated samples 3 days after infestation. Control of Spodoptera littoralis by a test sample is when at least one of mortality, anti-feedant effect, and growth inhibition is higher than the untreated sample.
# [4] = system: Tetranychus Urticae; experiment: Tetranychus urticae (two-spotted spider mite) feeding/contact activity on bean leaf discs; assay type: in vivo; conditions: foliar, 192 h, application rate of 200 ppm, mixed population (mobile stages), 8 days after infestation
# Experimental: Example B4: Tetranychus Urticae (Two-Spotted Spider Mite) (Feeding/Contact Activity)
# Bean leaf discs on agar in 24-well microtiter plates were sprayed with aqueous test solutions prepared from 10′000 ppm DMSO stock solutions. After drying the leaf discs were infested with a mite population of mixed ages. The samples were assessed for mortality on mixed population (mobile stages) 8 days after infestation.
Structure (SMILES),percent effect (mortality or growth inhibition) at 200 ppm [1] [%],melting point [°C],further results
"CC(C)c1ccccc1NC(=O)O/N=C\c1ccc(-c2ncn(-c3ccc(OC(F)(F)F)cc3)n2)cc1 (single isomer, unassigned) [Compound P1, [(Z)-[4-[1-[4-(trifluoromethoxy)phenyl]-1,2,4-triazol-3-yl]phenyl]methyleneamino] N-(2-isopropylphenyl) carbamate]",≥ 80,–,"percent effect (mortality or growth inhibition) at 200 ppm [2]: ≥ 80%; percent control (mortality, anti-feedant effect or growth inhibition) at 200 ppm [3]: ≥ 80%"
CC(C)c1ccccc1NC(=O)O/N=C/c1ccc2c(c1)nc(-c1ccc(OC(F)(F)F)cc1)n2C,–,93 to 130,–
CC/C(=N\OC(=O)Nc1ccccc1C(F)(F)F)c1ccc(-c2ncn(-c3ccc(OC(F)(F)F)cc3)n2)cc1,–,151 to 154,–
COc1ccccc1NC(=O)O/N=C/c1ccc(-c2ncn(-c3ccc(OC(F)(F)F)cc3)n2)cc1,–,182 to 183,–
CC(C)c1ccccc1NC(=O)O/N=C/c1ccc2nc(-c3ccc(OC(F)(F)F)cc3)n(C)c2c1,–,98 to 130,–
C/C(=N\OC(=O)Nc1ccccc1C(C)C)c1ccc(-c2ncn(-c3ccc(OC(F)(F)F)cc3)n2)cc1 [Compound P3],≥ 80,–,percent effect (mortality or growth inhibition) at 200 ppm [2]: ≥ 80%
Cc1cccc(C)c1NC(=O)O/N=C/c1ccc2c(c1)C(=O)N(c1ccc(OC(F)(F)F)cc1)C2=O,–,247 to 248,–
C/C(=N\OC(=O)Nc1c(C)cccc1C)c1ccc(-c2ncn(-c3ccc(OC(F)(F)F)cc3)n2)cc1 [Compound P5],≥ 80,–,"percent effect (mortality or growth inhibition) at 200 ppm [2]: ≥ 80%; percent control (mortality, anti-feedant effect or growth inhibition) at 200 ppm [3]: ≥ 80%"
Cc1cccc(C)c1NC(=O)O/N=C/c1ccc2sc(-c3ccc(OC(F)(F)F)cc3)nc2c1 [Compound P17],–,–,"percent control (mortality, anti-feedant effect or growth inhibition) at 200 ppm [3]: ≥ 80%"
Cc1cccc(C)c1NC(=O)O/N=C/CCc1ccc(-c2ncn(-c3ccc(OC(F)(F)F)cc3)n2)cc1 [Compound P11],≥ 80,–,–
CC/C(=N\OC(=O)Nc1ccccc1C(C)C)c1ccc(-c2ncn(-c3ccc(OC(F)(F)F)cc3)n2)cc1,–,170 to 171,–
O=C(Nc1ccccc1Cl)O/N=C/c1ccc(-c2ncn(-c3ccc(OC(F)(F)F)cc3)n2)cc1,–,183 to 184,–
Cc1cccc(C)c1NC(=O)O/N=C/c1ccc2nc(-c3ccc(OC(F)(F)F)cc3)n(C)c2c1,–,68 to 124,–
O=C(Nc1ccc(Cl)nc1)O/N=C/c1ccc(-c2ncn(-c3ccc(OC(F)(F)F)cc3)n2)cc1 [Compound P20],≥ 80,–,"mortality at 200 ppm [4]: ≥ 80%; percent control (mortality, anti-feedant effect or growth inhibition) at 200 ppm [3]: ≥ 80%"
O=C(Nc1ccccc1C(F)(F)F)O/N=C/c1ccc(-c2ncn(-c3ccc(OC(F)(F)F)cc3)n2)cc1,–,179 to 180,–
Cc1cc(NC(=O)O/N=C/c2ccc(-c3ncn(-c4ccc(OC(F)(F)F)cc4)n3)cc2)c(C(F)(F)F)o1 [Compound P19],–,–,mortality at 200 ppm [4]: ≥ 80%
"C/C(=N\OC(=O)Nc1ccccc1C(F)(F)F)c1ccc(-c2ncn(-c3ccc(OC(F)(F)F)cc3)n2)cc1 [Compound P4, [1-[4-[1-[4-(trifluoromethoxy)phenyl]-1,2,4-triazol-3-yl]phenyl]ethylideneamino]N-[2-(trifluoromethyl)phenyl]carbamate]",–,–,percent effect (mortality or growth inhibition) at 200 ppm [2]: ≥ 80%
O=C(Nc1ccc(Cl)cc1Cl)O/N=C/c1ccc(-c2ncn(-c3ccc(OC(F)(F)F)cc3)n2)cc1,–,179 to 182,–
Cc1cccc(C)c1NC(=O)O/N=C/c1ccc(-c2ncn(-c3ccc(OC(F)(F)F)cc3)n2)cc1 [Compound P14],≥ 80,–,percent effect (mortality or growth inhibition) at 200 ppm [2]: ≥ 80%
"CC(C)c1ccccc1NC(=O)O/N=C/c1ccc(-c2ncn(-c3ccc(OC(F)(F)F)cc3)n2)cc1 (single isomer, unassigned) [Compound P2, [(E)-[4-[1-[4-(trifluoromethoxy)phenyl]-1,2,4-triazol-3-yl]phenyl]methyleneamino] N-(2-isopropylphenyl) carbamate]",≥ 80,–,"percent effect (mortality or growth inhibition) at 200 ppm [2]: ≥ 80%; percent control (mortality, anti-feedant effect or growth inhibition) at 200 ppm [3]: ≥ 80%"
CC/C(=N\OC(=O)Nc1c(C)cccc1C)c1ccc(-c2ncn(-c3ccc(OC(F)(F)F)cc3)n2)cc1 [Compound P10],≥ 80,–,"percent effect (mortality or growth inhibition) at 200 ppm [2]: ≥ 80%; percent control (mortality, anti-feedant effect or growth inhibition) at 200 ppm [3]: ≥ 80%"
O=C(Nc1ccccc1)O/N=C/c1ccc(-c2ncn(-c3ccc(OC(F)(F)F)cc3)n2)cc1,–,174 to 180,–
Cc1cccc(C)c1NC(=O)O/N=C/c1ccc2c(c1)nc(-c1ccc(OC(F)(F)F)cc1)n2C,–,68 to 124,–
O=C(Nc1cscc1Br)O/N=C/c1ccc(-c2ncn(-c3ccc(OC(F)(F)F)cc3)n2)cc1,–,197 to 198,–
